Molecules are shown by their SMILES. Where two headings read alike, the source gives them in different places.

The source of these data is patent publication US9056104B2, “Dynamic inhibitors of heat shock protein 90” (THE UNIVERSITY OF KANSAS, priority 2011, dated 2015).

The test system of series [1] is SKBr3 (estrogen receptor negative, Her2 over-expressing breast cancer cells). As to the kind of experiment: Anti-proliferative activity against SKBr3 cells. The following applies: mean ± SD. It is filed as cell-based. As to the method:
(§1) Once synthesized, the library of coumermycin A1 analogs containing the olefinic and saturated linkers, were evaluated for anti-proliferative activity against SKBr3 (estrogen receptor negative, Her2 over-expressing breast cancer cells), MCF-7 (estrogen receptor positive breast cancer cells), A549 (human lung adenocarcinoma epithelial), HT29 (Human colon adenocarcinoma grade II), and PC3mm2 (androgen receptor insensitive prostate cancer) cell lines. […] As shown, X is at the 6 position and Y is at the 8 position.

Series [2] has as its system MCF-7 (estrogen receptor positive breast cancer cells). As to the kind of experiment: Anti-proliferative activity against MCF-7 cells. Conditions: mean ± SD. It is filed as cell-based. As for the experimental part:
as §1

In series [3] the test system is PC3mm2 (androgen receptor insensitive prostate cancer). As to the kind of experiment: Anti-proliferative activity against PC3mm2 cells. It is filed as cell-based. As to the method: as §1, with “lines. The activities produced provide insight into the optimal distance between binding sites and provide rationale for subsequent analog design.” for “lines.”
Series [4] concerns A549 (human lung adenocarcinoma epithelial). Put plainly: Anti-proliferative activity against A549 cells. It is filed as cell-based. As to the method: as §1, with “lines. The activities produced provide insight into the optimal distance between binding sites and provide rationale for subsequent analog design.” for “lines.”
In series [5] the test system is HT29 (Human colon adenocarcinoma grade II). Put plainly: Anti-proliferative activity against HT29 cells. It is filed as cell-based. As for the experimental part:
as §1, with “lines. The activities produced provide insight into the optimal distance between binding sites and provide rationale for subsequent analog design.” for “lines.”

The test system of series [6] is SKBr3, MCF-7, A549, HT29 and PC3mm2 cell lines. Put plainly: Anti-proliferative activity, cell lines not specified. It is filed as cell-based. As for the experimental part: as §1, with “lines. The activities produced provide insight into the optimal distance between binding sites and provide rationale for subsequent analog design.” for “lines.”
Series [7] deals with HSP90-dependent client proteins (Her-2, Raf, Akt). Put plainly: Western blot analyses of HSP90 client protein degradation in MCF-7 breast cancer cells. It is filed as cell-based. Conditions: MCF-7 lysates, 24 hour treatment, 5x and 1/2 of antiproliferative IC50. As for the experimental part:
Since actin is not dependent on HSP90 for its maturation, actin levels should remain constant after treatment with an HSP90 inhibitor and is therefore used as a control. […] L represents a concentration ½ of the anti-proliferative IC50 value while H represents a concentration 5 times greater than the anti-proliferative IC50 value. GDA (500 nM) represents a positive control, while DMSO (0), vehicle, serves as the negative control. […]
Background: In western blotting, separated proteins are transferred to a membrane and probed.

The subject of series [8] is prostate cancer (PC3mm2) cell lines. Put plainly: Anti-proliferative activity against prostate cancer cell lines (collective statements). Conditions: low nanomolar, prostate cancers; read-out: anti-proliferative activities against prostate cancers. It is filed as cell-based. As to the method: as §1, with “lines. The activities produced provide insight into the optimal distance between binding sites and provide rationale for subsequent analog design.” for “lines.”
(§2) The first series of analogs included compounds with simplified moieties in lieu of the noviose sugar, while subsequent analogs included varying coumarin, noviose, and tether modifications. Many of these coumermycin A1 analogs manifested potent anti-proliferative activity that correlated directly to HSP90 inhibition as evidenced by the degradation of HSP90-dependent client proteins. Replacement of the laborious, stereochemical complex, and expensive noviose sugar with commercially available piperidine moieties produced compounds that manifested ˜100-fold increase in antiproliferative activities.

For series [9], the system named is prostate cancer (PC3mm2, A549 and HT29) cell lines. The description is as above. It is filed as cell-based. As for the experimental part:
as §1, with “lines. The activities produced provide insight into the optimal distance between binding sites and provide rationale for subsequent analog design.” for “lines.”
as §2

In series [10] the test system is breast cancer (SKBr3 and MCF7) cell lines. Put plainly: Anti-proliferative activity against breast cancer cell lines (collective statements). It is filed as cell-based. The following applies: versus Compound 68. As for the experimental part: as §1, with “lines. The activities produced provide insight into the optimal distance between binding sites and provide rationale for subsequent analog design.” for “lines.”
as §2

Another series can be described thus: Solubility in DMSO. It is filed as physicochemical.
In another series the test system is cancer cells. Conditions: cited from earlier work; for IC50: previously found, background, read-out: IC50 against cancer cells (anti-proliferative activity).
Setting [11] is: Table 2, read-out: Anti-Proliferation Activities of non-Noviosylated Olefin Dimers, SKBr3.
Setting [12] is: Table 2, read-out: Anti-Proliferation Activities of non-Noviosylated Olefin Dimers, MCF7.
The mark [13] stands for this setting: Table 2, read-out: Anti-Proliferation Activities of non-Noviosylated Olefin Dimers, PC3mm2.
The mark [14] stands for this setting: Table 2, read-out: Anti-Proliferation Activities of non-Noviosylated Olefin Dimers, A549.
Setting [15] is: Table 2, read-out: Anti-Proliferation Activities of non-Noviosylated Olefin Dimers, HT29.
Setting [16] is: Table 4, read-out: Anti-Proliferation Activities of Biaryl Dimers, SKBr3.
Setting [17] is: Table 4, read-out: Anti-Proliferation Activities of Biaryl Dimers, MCF-7.
The mark [18] stands for this setting: Table 4, read-out: Anti-Proliferation Activities of Biaryl Dimers, PC3mm2.
Setting [19] is: Table 4, read-out: Anti-Proliferation Activities of Biaryl Dimers, A549.
Setting [20] is: Table 4, read-out: Anti-Proliferation Activities of Biaryl Dimers, HT29.
[21] abbreviates: Table 5, read-out: Anti-Proliferation Activities Non-Noviosylated Biaryl Dimers, SKBr3.
Setting [22] is: Table 5, read-out: Anti-Proliferation Activities Non-Noviosylated Biaryl Dimers, MCF-7.

Regarding `Cc1c(OC2CCN(C)CC2)ccc2cc(NC(=O)CC/C=C/CCC(=O)Nc3cc4ccc(OC5CCN(C)CC5)c(C)c4oc3=O)c(=O)oc12` [Compound 29], the IC50 in series [1] (setting [11]) was determined as 150 ± 10 nM; in series [2] (setting [12]) it was 270 ± 20 nM; in series [3] (setting [13]), 4190 nM; in series [4] (setting [14]), 5540 nM; in [5] (setting [15]), 50 nM. Further, in series [6] (8-methyl coumarin series, versus Compound 32), the “fold more active than the 10-carbon linker (Compound 32)” value was 2-3 fold.

`Cc1c(OC2CCN(C)CC2)ccc2cc(NC(=O)CCC/C=C/CCCC(=O)Nc3cc4ccc(OC5CCN(C)CC5)c(C)c4oc3=O)c(=O)oc12` [Compound 32]: the IC50 in series [1] (setting [11]) was 890 ± 10 nM; in series [2] (setting [12]), 630 ± 30 nM; in series [3] (setting [13]) it was 440 nM; in [4] (setting [14]) it was 220 nM; in series [5] (setting [15]), 240 nM; in [8] it was 200 to 400 nM. The “degradation of Raf and Akt, Western blot” value in series [7] is “caused degradation of Raf and Akt”. For the same molecule, the “effect on Her2, Western blot” value in [7] is given as “no effect on Her2”. The “fold more active than any other dimer against prostate cancers” value in series [9] (versus other non-noviosylated dimers) is on record as 10-20 fold.

For the molecule `COc1ccc(C(=O)Nc2cc3ccc(OC4OC(C)(C)C(OC)C(O)C4O)c(C)c3oc2=O)cc1-c1cc(C(=O)Nc2cc3ccc(OC4OC(C)(C)C(OC)C(O)C4O)c(C)c3oc2=O)ccc1OC` (stereo not shown) [Compound 66], the IC50 in [1] (setting [16]) was 1160 ± 210 nM; in series [2] (setting [17]), 760 ± 140 nM; in series [3] (setting [18]), 36700 nM; in series [4] (setting [19]), 36800 nM; in series [5] (setting [20]), 36500 nM. The “fold more active than Compound 68 against breast cancer cell lines” value in [10] worked out at 2 fold.

`COc1ccc(C(=O)Nc2cc3ccc(OC4OC(C)(C)C(OC)C(O)C4O)c(OC)c3oc2=O)cc1-c1cc(C(=O)Nc2cc3ccc(OC4OC(C)(C)C(OC)C(O)C4O)c(OC)c3oc2=O)ccc1OC` (stereo not shown) [Compound 70]: the IC50 stood at 910 ± 120 nM in series [1] (setting [16]); 880 ± 200 nM in series [2] (setting [17]); 270 nM in [3] (setting [18]); 210 nM in series [4] (setting [19]); 270 nM in series [5] (setting [20]). The “fold more active against prostate cancer cell lines than 8-Me analog Compound 66” value in [9] (versus Compound 66) is listed as 100-150 fold.

With `COc1ccc(C(=O)Nc2cc3ccc(OC4CCN(C)CC4)c(C)c3oc2=O)cc1-c1cc(C(=O)Nc2cc3ccc(OC4CCN(C)CC4)c(C)c3oc2=O)ccc1OC` [Compound 71], the IC50 turned out to be 4980 ± 700 nM in [1] (setting [21]) and 14200 ± 2300 nM in series [2] (setting [22]). Moreover, the “solubility in DMSO” value in the series “Solubility in DMSO” is listed as “inherent insolubility in DMSO”.

`COc1ccc(C(=O)Nc2cc3ccc(OCCCN(C)C)c(C)c3oc2=O)cc1-c1cc(C(=O)Nc2cc3ccc(OCCCN(C)C)c(C)c3oc2=O)ccc1OC` [Compound 72]: the IC50 in series [1] (setting [21]) is 9500 ± 1200 nM; in series [2] (setting [22]), 11700 ± 1600 nM; in [3] (Table 5, read-out: Anti-Proliferation Activities Non-Noviosylated Biaryl Dimers, PC3mm2) it was 52300 nM; in series [4] (Table 5, read-out: Anti-Proliferation Activities Non-Noviosylated Biaryl Dimers, A549), 93400 nM; in series [5] (Table 5, read-out: Anti-Proliferation Activities Non-Noviosylated Biaryl Dimers, HT29), 62700 nM. The “solubility in DMSO” value in the series “Solubility in DMSO” is “inherent insolubility in DMSO”. Further, in [6] (versus Compounds 65-70), the “fold less active than the corresponding noviosylated coumarin-containing analogs (Compounds 65-70)” value is roughly 10 fold.

Take `CO[C@H]1[C@H](OC(=O)c2ccc(C)[nH]2)[C@H](O)[C@@H](Oc2ccc3c(O)c(NC(=O)c4c[nH]c(C(=O)Nc5c(O)c6ccc(O[C@H]7OC(C)(C)[C@@H](OC)[C@H](OC(=O)c8ccc(C)[nH]8)[C@@H]7O)c(C)c6oc5=O)c4C)c(=O)oc3c2C)OC1(C)C` [coumermycin A1]: in the series on cancer cells, the IC50 was 70000 nM. For the same molecule, the “fold increase in anti-proliferative activity over novobiocin” value in the series with cancer cells (relative to novobiocin) is 10 fold.

For `CO[C@@H]1[C@@H](OC(N)=O)[C@@H](O)[C@H](Oc2ccc3c(O)c(NC(=O)c4ccc(O)c(CC=C(C)C)c4)c(=O)oc3c2C)OC1(C)C` [novobiocin], the IC50 in the series with cancer cells was roughly 700000 nM.
